Data: patent publication US12397067B2, “Sulfur- or heavy atom-containing nanoparticles, methods of making same, and uses thereof” (Cornell University, priority 2017, dated 2025)

Tests used:
[1] = in ethanol; cited from earlier work
[2] = Singlet oxygen quantum yield determination with DPBF sensor, relative to methylene blue; conditions: FIG. 15b inset, 635 nm exposure
Protocol: Determination of singlet oxygen quantum yields, ΦΔ. Measurements were carried out in ethanol with DPBF as a singlet oxygen detector molecule. The DPBF band at 410 nm and λmax of each dye were absorption matched across a particle series. For measurements of effective ΦΔ samples were concentration matched. The spectra were exposed and measured in a 100 μL quartz cuvette (Starna). Samples were evenly exposed to a 635 nm solid-state laser at 3 mW/cm^2 and 1 cm spot size. Measurements were started immediately after DPBF addition. The decrease of the 410 nm DPBF band was measured at various exposure times and corrected against a baseline. ΦΔ for each sample was calculated by comparing to MB (ΦΔ=0.520 in ethanol) as a standard (see example calculations).
Example calculation to determine singlet oxygen quantum yield, ΦΔ. ΦΔ(sample) is determined relative to a standard with known ΦΔ(standard) using equation (5):
[formula] Here, we used methylene blue (MB) as a standard with known ΦΔ(MB)=0.520. With the slopes, m, from the linear fits through the values of the 410 nm DPBF absorption band at different exposure times, ΦΔ(sample) can be calculated. With the values from FIG. 15b inset m(ATTO647N 7.5% iC′ dots)=0.00314 s^−1 and m(MB)=0.02506 s^−1, Φ^Δ (ATT0647N 7.5% iC′ dots)=0.520([…])=0.065.

[3] = tested on: BxPC3 pancreatic cancer cells; assay: Cell toxicity study, Presto Blue % viability; assay type: cell-based; conditions: 14 mM (10% of typical imaging concentration), 16 hours
Protocol: Cell toxicity studies. BxPC3 pancreatic cancer cells were maintained in RPMI 1640 supplemented with 10% FBS at 37° C. with 5% CO2. To measure effects of C′ dots or βME on cells, cells at ˜70% confluence were washed with PBS, exposed to trypsin, resuspended, and dispensed into 96-well tissue culture plates (20,000 cells per well). Cells were allowed to settle overnight, forming a monolayer ˜70-80% confluent. The medium was removed from each well, and replaced with medium supplemented with varying amounts of either 60% srC′ dots or βME, or with DMSO (carrier agent) alone as a control, as well as 1× Pen-Strep antibiotic. Cells were then incubated for 6 days (srC′ dots) or 16 hours ((ME). Following incubation, medium was removed, cells washed with fresh medium and then incubated for one hour with fresh medium and Presto Blue per the manufacturer's recommendations. The absorbance of the Presto Blue was determined at 570 nm (background 600 nm) using a Tecan Safire microplate reader. Absorption was compared to that of a blank (medium plus Presto Blue in unused wells) to determine % viability of remaining cells, with the DMSO control lane defined as 100% viability, and the empty wells defined as 0% viability. All experiments were performed in triplicate.

Structure (SMILES)	singlet oxygen quantum yield, ΦΔ (known value of standard) [1]	slope m of linear fit of ln relative DPBF absorption at 410 nm vs exposure time [2]	%-cell viability [3]
CN(C)c1ccc2nc3ccc(=[N+](C)C)cc-3sc2c1 [MB, methylene blue]	0.520	0.02506 s^−1	
OCCS [βME, β-mercaptoethanol]			substantial cell death
